In brackets after ≈: the same amount, converted by molar mass. Read-outs that look alike come from different tables or passages of the source.
Assays:
[1] = tested on: Vancomycin-resistant S. aureus NARSA VRS4; assay: microbe, parasite or virus in culture; assay type: cell-based, Staphylococcus aureus
[2] = tested on: Multi-drug-resistant S. pneumoniae ATCC 700677; assay: microbe, parasite or virus in culture; conditions: for MIC MDR S.P.: ATCC 700677
Summary of the method: (§1)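 MICs were determined by broth microdilution in Mueller Hinton broth. Bacteria were pregrown overnight, diluted 40-fold and regrown 2–3 h at 37 °C.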

[3] = tested on: Vancomycin-intermediate S. aureus NRS1; assay: microbe, parasite or virus in culture; conditions: for MIC VISA: Vancomycin-intermediate NRS1
Summary of the method: as §1

Cytotoxicity MTT assay [4] = assay type: cell-based, human; conditions: human
Cytotoxicity MTT assay [5] = assay type: cell-based, human; conditions: human; remark: listed apart in the source
Summary of the method: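 HepG2 and HEK293 cells, 1.5 × 10^4 per well in DMEM with 1% FBS, were allowed to attach for 24 h, then exposed 24 h at 37 °C to compounds at 100 µM to 0.046 µM in threefold steps. MTT (0.4 mg mL^−1) was added for 2 h, and formazan in DMSO was read at 570 nm. Viability is given as percent of control, corrected for a positive control.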

[6] = tested on: Vancomycin-resistant (VanA) Enterococcus faecium ATCC 51559; assay: microbe, parasite or virus in culture
Summary of the method: as §1

[7] = tested on: Methicillin-sensitive S. aureus ATCC 29213; assay: microbe, parasite or virus in culture; assay type: cell-based, Staphylococcus aureus; conditions: for MIC: Staphylococcus aureus, ATCC 29213 / MSSA
Protocol: Antimicrobial activity of compounds was tested against a number of bacterial strains by broth microdilution (BMD) assay with MIC determination, including S. aureus (MSSA ATCC® 29213™, MRSA ATCC® 43300™, VISA NARSA NRS1, VISA NARSA NRS4), Streptococcus pneumoniae (MDR ATCC® 700677™) and Enterococcus faecium (MDR VanA ATCC® 51559™). ATCC strains were sourced from the American Type Culture Collection and NRS strains from NARSA (Network on Antimicrobial Resistance in S. aureus) via BEI Resources (www.beiresources.org). All compounds were prepared to 160 µg mL^−1 solution in water from a stock solution of 1 mM concentration.
[…] […] Standards ranged from 64 to 0.03 µg mL^−1 and compounds from 8 to 0.003 µg mL^−1 with final assay volumes of 100 µL per well. Gram-positive bacteria were cultured in Mueller Hinton broth (MHB) (Bactolaboratories, Cat. no. 211443) at 37 °C overnight. A sample of each culture was then diluted 40-fold in fresh MHB and incubated at 37 °C for 2–3 h. The resultant mid-log phase cultures were added to the compound-containing 96-well plates to give a final cell density of 5 × 10^5 colony forming unit (CFU) mL^−1. All the plates were covered and incubated at 37 °C for 24 h. MICs were the lowest concentration showing no visible growth.

S. aureus ATCC 43300 = assay: Membrane permeability assay (propidium iodide); assay type: cell-based, Staphylococcus aureus
Protocol: To evaluate the ability of the compounds to disrupt the cytoplasmic membrane integrity, the membrane impermeable fluorescent DNA intercalating dye propidium iodide (PI) was used. Early exponential phase cells were pelleted and washed twice in 10 mM HEPES buffer (pH 7.4) containing 50 µg mL^−1 of CaCl2 and 5 mM glucose, and then re-suspended in the same buffer (4 × 10^8 CFU mL^−1). Cell suspension was added to a 384-well black walled polystyrene plate (Corning, CLS3573) containing compounds, giving a final concentration of 16 µg mL^−1. After 1 h incubation at 37 °C, 5 µg mL^−1 of PI was added and fluorescence was monitored for 90 min using a Tecan Infinite® m1000 Pro Multi-mode reader (excitation/emission 535/620 nm). Data were corrected by subtraction of fluorescence signal arising from untreated cells in the presence of PI. […] Each sample was tested in quadruplicate and independent assays were performed twice showing similar results. Data was analysed and presented using Prism software.

**Q.** For `CCCCCCCCCCC(=O)N[C@@H](CCCCN)C(=O)N[C@@H](CCCCN)C(=O)N[C@@H](CCCCN)C(=O)N[C@@H](CCCCNC(=O)[C@H]1NC(=O)[C@H]2NC(=O)[C@H](NC(=O)[C@@H]3NC(=O)[C@H](CC(N)=O)NC(=O)[C@H](NC(=O)[C@@H](CC(C)C)NC)[C@H](O)c4ccc(c(Cl)c4)Oc4cc3cc(c4O[C@@H]3O[C@H](CO)[C@@H](O)[C@H](O)[C@H]3O[C@H]3C[C@](C)(N)[C@H](O)[C@H](C)O3)Oc3ccc(cc3Cl)[C@H]2O)c2ccc(O)c(c2)-c2c(O)cc(O)cc21)C(=O)O` [Compound 18, nC10CO-KKK-K(Vancomycin)-OH], which “MIC VRSA” value ([1]; Vancomycin-resistant NARSA VRS4) is on record?
**A.** 0.5 µg/mL (≈ 0.235 µM)

**Q.** What about the “MIC MDR S.P.” value [2] of the same molecule?
**A.** 0.06 µg/mL (≈ 0.0282 µM)

**Q.** What about the “MIC VISA” value [3] of the same molecule?
**A.** 0.5 µg/mL (≈ 0.235 µM)

**Q.** What about the CC50 at 24 h (Cytotoxicity MTT assay [4]) of the same molecule?
**A.** 106 µM

**Q.** What about the CC50 at 24 h (Cytotoxicity MTT assay [5]) of the same molecule?
**A.** 108 µM

**Q.** What does the source list for `CN[C@H](CC(C)C)C(=O)N[C@H]1C(=O)N[C@@H](CC(N)=O)C(=O)N[C@H]2C(=O)N[C@H]3C(=O)N[C@H](C(=O)N[C@H](C(=O)O)c4cc(O)cc(O)c4-c4cc3ccc4O)[C@H](O)c3ccc(c(Cl)c3)Oc3cc2cc(c3O[C@@H]2O[C@H](CO)[C@@H](O)[C@H](O)[C@H]2O[C@H]2C[C@](C)(N)[C@H](O)[C@H](C)O2)Oc2ccc(cc2Cl)[C@H]1O` [Compound 1, Vancomycin]?
**A.** MIC ([1]; Staphylococcus aureus, VRSA, read-out: MIC VRSA): > 64 µg/mL; MIC ([2]; Streptococcus pneumoniae, ATCC700677, read-out: MIC MDR S.P.): 1 µg/mL (≈ 0.69 µM); MIC ([3]; Staphylococcus aureus, NRS1 / VISA, read-out: MIC VISA): 4 µg/mL (≈ 2.76 µM); MIC ([6]; Enterococcus faecium, ATCC51559 / VRE, read-out: MIC VRE): > 64 µg/mL; MIC ([7]; read-out: MIC MSSA): 1 µg/mL (≈ 0.69 µM); MIC ([7]; read-out: MIC S. aureus ATCC29213 MSSA, NBS): 1 µg/mL (≈ 0.69 µM); MIC ([7]; read-out: MIC S. aureus ATCC29213 MSSA, PP): 1 µg/mL (≈ 0.69 µM); MIC ([7]; read-out: MIC S. aureus ATCC29213 MSSA, PS): 2 µg/mL (≈ 1.38 µM); MIC ([7]; read-out: MIC S. aureus ATCC29213 MSSA, PS+P-80): 1 to 2 µg/mL (≈ 0.69 to 1.38 µM); CC50 at 24 h (Cytotoxicity MTT assay [4]; 24 h, MTT, 1% FBS, read-out: Cytotoxicity CC50 HepG2): 6300 µM; CC50 at 24 h (Cytotoxicity MTT assay [5]; 24 h, MTT, 1% FBS, read-out: Cytotoxicity CC50 HEK293): 5900 µM; Membrane permeabilisation (propidium iodide fluorescence) (S. aureus ATCC 43300; 16 µg mL^−1, 1 h, MRSA ATCC 43300): little to no effect

**Q.** What does the source list for `CNC(=O)[C@H](CCCCNC(=O)[C@H]1NC(=O)[C@H]2NC(=O)[C@H](NC(=O)[C@@H]3NC(=O)[C@H](CC(N)=O)NC(=O)[C@H](NC(=O)[C@@H](CC(C)C)NC)[C@H](O)c4ccc(c(Cl)c4)Oc4cc3cc(c4O[C@@H]3O[C@H](CO)[C@@H](O)[C@H](O)[C@H]3O[C@H]3C[C@](C)(N)[C@H](O)[C@H](C)O3)Oc3ccc(cc3Cl)[C@H]2O)c2ccc(O)c(c2)-c2c(O)cc(O)cc21)NC(=O)[C@H](CCCCN)NC(=O)[C@H](CCCCN)NC(=O)[C@H](CCCCNC(=O)c1ccc(Oc2ccccc2)cc1)NC(=O)c1ccc(Oc2ccccc2)cc1` [Compound 24, POB2K-KK-K(Vancomycin)-NHMe]?
**A.** MIC VRSA ([1]; S. aureus NARSA VRS4): 0.08 µg/mL (≈ 0.0338 µM); MIC MDR S.P. [2]: <0.003 µg/mL; MIC VISA [3]: 0.125 µg/mL (≈ 0.0528 µM); MIC VRE ([6]; ATCC 51559): 0.5 µg/mL (≈ 0.211 µM); MIC MSSA ([7]; ATCC 29213): ≤0.016 µg/mL; MIC S. aureus ATCC29213 MSSA, PP ([7]; ATCC 29213): 1 µg/mL (≈ 0.422 µM); MIC S. aureus ATCC29213 MSSA, PS ([7]; ATCC 29213): 2 µg/mL (≈ 0.845 µM); MIC S. aureus ATCC29213 MSSA, PS+P-80 ([7]; ATCC 29213): 0.031 µg/mL (≈ 0.0131 µM); CC50 at 24 h (Cytotoxicity MTT assay [4]): 100 µM; CC50 at 24 h (Cytotoxicity MTT assay [5]): 140 µM; Membrane permeabilisation (propidium iodide fluorescence) (S. aureus ATCC 43300): comparable fluorescence intensity to oritavancin
